Experiments:
[1] = Protocol 136: body weight, adverse events and toxicity; format: in vivo, B6-huCEA mice
Source text: (§1) Primary solid xenografts were established in each B6-huCEA or huCEACAM5 mouse on study day 0 through subcutaneous (SC) or intrapancreatic injection of carcinoembryonic antigen (CEA)-expressing tumor cells. […] Indications of pain, distress, or discomfort include, but are not limited to, acute body weight (BW) loss, scruffy fur, diarrhea, hunched posture, pale skin, and reluctance to move. Poor SC tumor status (e.g. ulceration, teeth marks, or open wounds) may also prompt euthanasia; in the orthotopic model, abdominal swelling indicates increasing tumor burden, which may prompt euthanasia.
(§2) SC tumor volumes were estimated through manual calipering 3 times per week, calculated according to the formula: volume 0.5× length×width^2. Additional tumor measurements were made as needed depending on the tumor growth rate. In the orthotopic model, the tumor progress was assessed regularly through bioluminescence imaging (BLI). The BW of the animals was measured at least 3 times per week, with additional measurements as needed depending on the health status. Mice whose BW loss exceeded 20% of their initial BW or whose tumor volume reached 3000 mm^3 (Protocols 119, 136, 150) or 2000 mm^3 (Protocol 195) were euthanized immediately.
No mice were euthanized due to acute post-injection BW loss; 1 tumor-free CEA-PRIT mouse was euthanized on day 117 after a sudden decline in overall status. […]

[2] = Protocol 119: body weight, adverse events and toxicity; format: in vivo
[3] = Protocol 195: body weight, adverse events and toxicity; format: in vivo
[4] = Protocol 150: body weight, adverse events and toxicity; format: in vivo
Source text: as §1, §2
No mice were euthanized due to acute post-injection BW loss.
Reactions included sluggish behaviour, somnolence, and death in 1/14 mice. […]

Compound: NC(=O)CN1CCN(CC(N)=O)CCN(CC(N)=O)CCN(CC(N)=O)CC1.[212Pb+2] [^212Pb-DOTAM]
- body weight change [1]: transient weight loss in irradiated mice
- body weight change [2]: transient weight loss in irradiated mice
- body weight change [3]: did not cause any significant weight loss by itself
- body weight change [4]: transient weight loss in irradiated mice

Reference: patent US20240173442A1, “COMBINATION THERAPY” (Hoffmann-La Roche Inc., priority 2021, published 2024)
